The values below come from PMC6271771, “4-Amino-substituted Benzenesulfonamides as Inhibitors of Human Carbonic Anhydrases” (Molecules, 2014).

For data set [1], the target named is T1, CA I (Homo sapiens, UniProt P00915).
T1 construct: made in house
Description: Fluorescent thermal shift assay (FTSA), CA I. In kind it is binding.

Data set [2] addresses T2, CA XIII (Homo sapiens, UniProt Q8N1Q1).
T2 construct: made in house
Description: Fluorescent thermal shift assay (FTSA), CA XIII. In kind it is binding.

The target in data set [3] is T3, CA VII (Homo sapiens, UniProt P43166).
T3 construct: made in house
T3 sequence (P43166 whole entry): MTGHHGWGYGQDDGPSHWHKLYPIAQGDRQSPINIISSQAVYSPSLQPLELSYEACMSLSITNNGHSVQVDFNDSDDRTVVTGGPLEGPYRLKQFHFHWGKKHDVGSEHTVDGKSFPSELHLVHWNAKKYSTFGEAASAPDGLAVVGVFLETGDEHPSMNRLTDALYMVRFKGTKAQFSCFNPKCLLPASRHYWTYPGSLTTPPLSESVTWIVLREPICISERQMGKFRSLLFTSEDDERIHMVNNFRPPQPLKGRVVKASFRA
Description: Fluorescent thermal shift assay (FTSA), CA VII. In kind it is binding.

Data set [4] has as its target T4, CA VI (Homo sapiens, UniProt P23280).
T4 construct: made in house
Also on record: method as in PMID 24300919, PMID 17228881. The note with it: read-out: inhibition constant Ki for CA VI; previously reported; cited from earlier work.

The target of data set [5] is T4, CA VI. The data set is described as follows: Fluorescent thermal shift assay (FTSA), CA VI. In kind it is binding.
For data set [6], the target named is T4, CA VI. Also on record: method as in Murakami and Sly 35. The note with it: read-out: Ki for CA VI; ref Murakami and Sly 35; cited from earlier work.
Data set [7] deals with T5, CA II (Homo sapiens, UniProt P00918).
T5 construct: made in house
The data set is described as follows: Fluorescent thermal shift assay (FTSA), CA II. In kind it is binding. The note with it: pH 7.0, 37 °C.

The target in data set [8] is T6, CA XII (Homo sapiens, UniProt O43570).
T6 construct: made in house
T6 sequence (O43570 30-289 limits assumed): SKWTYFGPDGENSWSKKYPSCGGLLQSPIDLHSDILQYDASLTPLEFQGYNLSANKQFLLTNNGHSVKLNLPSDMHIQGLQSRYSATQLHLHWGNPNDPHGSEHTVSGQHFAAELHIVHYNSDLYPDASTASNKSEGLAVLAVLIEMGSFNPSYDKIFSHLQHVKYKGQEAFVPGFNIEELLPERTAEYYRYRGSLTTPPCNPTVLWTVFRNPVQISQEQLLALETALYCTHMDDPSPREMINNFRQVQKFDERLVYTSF
The data set is described as follows: Fluorescent thermal shift assay (FTSA), CA XII. In kind it is binding.

For data set [9], the target named is T3, CA VII. Description: Isothermal titration calorimetry (ITC), CA VII. Type of data set: binding. The protocol: (§1) The synthesized compounds could be arranged into two groups. The first group of compounds is the N-aryl-β-alanine derivatives containing the primary sulfonamide group 3–25 (except in the compound 4 which is a tertiary sulfonamide) and the second group of compounds—diazobenzenesulfonamides 26–33. Compounds such as benzenesulfonamide (BSA) and acetazolamide (AZM) were used as controls. The binding affinity of these compounds to six CA isoforms I, II, VI, VII, XII, and XIII was determined by the fluorescent thermal shift assay (FTSA) and confirmed for two key compounds 18 and 31 by the isothermal titration calorimetry (ITC).
(§2) Isothermal titration calorimetry (ITC) experiments were performed using VP-ITC instrument (Microcal, Inc., Northampton, MA, USA) with 5–10 µM protein solution in the cell and 50–100 µM of the ligand solution in the syringe. A typical experiment consisted of 25 injections (10 µL each) within 3 min intervals. Experiments were performed at 37 °C in a 50 mM sodium phosphate buffer containing 100 mM NaCl at pH 7.0, with a final DMSO concentration of 2%, equal in the syringe and the cell.
(In general: ITC needs no label: the signal is the heat of the interaction.)

The target of data set [10] is T2, CA XIII. The data set is described as follows: Isothermal titration calorimetry (ITC), CA XIII. Type of data set: binding. The procedure: as §1, §2
Data set [11] has as its target T1, CA I. Description: Isothermal titration calorimetry (ITC), CA I. Type of data set: binding. The protocol: as §1, §2
For data set [12], the target named is T5, CA II. The data set is described as follows: Isothermal titration calorimetry (ITC), CA II. The conditions noted are these: for K (ITC titration of CA II) / ΔH (ITC titration of CA II): 37 °C, 50 mM phosphate buffer (pH 7.0), 100 mM NaCl, 2% DMSO, Figure 2. Type of data set: binding. The procedure: as §1, §2
Data set [13] deals with T6, CA XII. Description: Isothermal titration calorimetry (ITC), CA XII. In kind it is binding. The note with it: pH 7.0, 37 °C, read-out: Kd for CA XII by isothermal titration calorimetry (values in the brackets). The procedure: as §1, §2
[14] abbreviates: FTSA, pH 7.0, 37 °C, read-out: Compound Dissociation Constants Kd for CA XIII.
[15] abbreviates: FTSA, pH 7.0, 37 °C, read-out: Compound Dissociation Constants Kd for CA I.
Setting [16] is: read-out: Compound Dissociation Constants Kd for CA II.
[17] abbreviates: FTSA, pH 7.0, 37 °C, read-out: Compound Dissociation Constants Kd for CA VII.
The mark [18] stands for this setting: FTSA, pH 7.0, 37 °C, read-out: Compound Dissociation Constants Kd for CA VI.
The mark [19] stands for this setting: FTSA, pH 7.0, 37 °C, read-out: Compound Dissociation Constants Kd for CA XII.

SMILES strings stand for the structures. “And” between values parts separate entries of the source, which are not always exact repeats. Identical values can stand only once. Like-named read-outs stand apart in the source and are kept apart here.

T4 sequence (P23280 18-308): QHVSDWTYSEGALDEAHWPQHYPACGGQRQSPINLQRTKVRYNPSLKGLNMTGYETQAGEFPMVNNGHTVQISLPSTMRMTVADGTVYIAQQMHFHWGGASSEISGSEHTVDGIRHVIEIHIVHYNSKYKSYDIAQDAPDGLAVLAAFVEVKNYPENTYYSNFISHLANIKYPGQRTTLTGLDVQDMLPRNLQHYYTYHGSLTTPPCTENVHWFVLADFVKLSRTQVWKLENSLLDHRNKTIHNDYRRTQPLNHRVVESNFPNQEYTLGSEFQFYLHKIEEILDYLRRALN
T2 sequence (Q8N1Q1 whole entry): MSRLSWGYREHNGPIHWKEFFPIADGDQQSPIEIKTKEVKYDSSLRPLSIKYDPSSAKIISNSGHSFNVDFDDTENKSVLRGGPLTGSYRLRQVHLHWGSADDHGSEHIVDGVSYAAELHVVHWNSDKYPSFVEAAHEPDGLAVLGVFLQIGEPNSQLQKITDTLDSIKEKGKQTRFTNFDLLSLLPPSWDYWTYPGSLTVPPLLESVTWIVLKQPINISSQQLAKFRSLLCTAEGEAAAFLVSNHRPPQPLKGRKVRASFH
T1 sequence (P00915 whole entry): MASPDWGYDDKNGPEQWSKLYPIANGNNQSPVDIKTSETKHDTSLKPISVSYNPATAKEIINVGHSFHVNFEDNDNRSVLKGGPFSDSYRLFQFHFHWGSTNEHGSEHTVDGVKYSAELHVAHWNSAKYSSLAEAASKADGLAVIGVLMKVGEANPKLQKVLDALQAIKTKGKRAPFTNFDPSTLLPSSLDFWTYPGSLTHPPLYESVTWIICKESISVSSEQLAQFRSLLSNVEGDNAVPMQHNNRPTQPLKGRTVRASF

The term Ki denotes a dissociation constant, usually derived from enzyme kinetics or from competition with a known ligand. For `Nc1ccc(S(N)(=O)=O)cc1` [Compound 1, 4-Aminobenzene-1-sulfonamide, reference compound], the “difference between own Kd and Ki of Murakami and Sly, CA I” value on CA I [1] (Kd (FTSA) versus Ki of ref 35) was 2 times. Also, the Kd at CA XIII [2] (setting [14]) came out at 100 µM; at CA VII [3] it was 50 µM; at CA VI [5], 56 µM. In addition, the figures for the Ki at CA VI [4] and on CA VI [6] were 0.9 µM and 9.9 µM, respectively.
Broadly, the melting point is the temperature of the solid-liquid transition. Regarding `NS(=O)(=O)c1ccc(NCCC(=O)N/N=C/c2ccc(Br)cc2)cc1` [Compound 14, 4-[(2-{N'-[(4-Bromphenyl)methylidene]hydrazinecarbonyl}ethyl)amino]benzene-1-sulfonamide], the melting point was 218 to 219 °C. Moreover, on CA I [1] (setting [15]), the Kd is 12.5 µM. For the same molecule, the Kd at CA XIII [2] (setting [14]) was found to be 7.14 µM. For the same molecule, the Kd on CA II [7] (setting [16]) was 1.82 µM. Moreover, at CA VII [3] (setting [17]), the Kd was 5.88 µM. Further, the Kd at CA VI [5] (setting [18]) is 7.1 µM. The Kd at CA XII [8] (setting [19]) amounted to 31.3 µM.
In turn, `NS(=O)(=O)c1ccc(NCCC(=O)NN=Cc2ccc(Cl)cc2)cc1` [Compound 15, 4-[(2-{N'-[(4-Chlorophenyl)methylidene]hydrazinecarbonyl}ethyl]amino)benzene-1-sulfonamide] came in with a melting point of 226 to 227 °C. For the same molecule, the Kd at CA I [1] (setting [15]) turned out to be 12.5 µM. For the same molecule, the Kd on CA XIII [2] (setting [14]) came to 8.33 µM. For the same molecule, the Kd on CA II [7] (setting [16]) turned out to be 2 µM. Further, the Kd on CA VII [3] (setting [17]) was 12.5 µM. Further, the Kd on CA VI [5] (setting [18]) came out at 6.7 µM. For the same molecule, the Kd on CA XII [8] (setting [19]) amounted to 33.3 µM.
Take `CN(C)c1ccc(/C=N/NC(=O)CCNc2ccc(S(N)(=O)=O)cc2)cc1` [Compound 16]: the melting point was 179 to 180.5 °C. Also, on CA I [1] (setting [15]), the Kd amounted to 37 µM. For the same molecule, the Kd on CA XIII [2] (setting [14]) came out at 55.6 µM. Besides, the Kd at CA II [7] (setting [16]) was 8.33 µM. At CA VII [3] (setting [17]), the Kd was 25 µM. Also, at CA VI [5] (setting [18]), the Kd was found to be 50 µM. Further, the Kd on CA XII [8] (setting [19]) was 33.3 µM.
In turn, `NS(=O)(=O)c1ccc(NCCC(=O)NN=Cc2ccc([N+](=O)[O-])cc2)cc1` [Compound 17, 4-[(2-{N′-[(4-Nitrophenyl)methylidene]hydrazinecarbonyl]ethyl)amino]benzene-1-sulfonamide] registered a melting point of 227 to 228.5 °C. The Kd at CA I [1] (setting [15]) was determined as 20 µM. Also, the Kd on CA XIII [2] (setting [14]) worked out at 50 µM. Moreover, the Kd on CA II [7] (setting [16]) is 3.6 µM. Also, the Kd on CA VII [3] (setting [17]) amounted to 25 µM. Moreover, on CA VI [5] (setting [18]), the Kd is 25 µM. Also, the Kd at CA XII [8] (setting [19]) came to 67 µM.
As to `Cc1cc(C)n(C(=O)CCNc2ccc(S(N)(=O)=O)cc2)n1` [Compound 18, 4-{[3-(3,5-Dimethyl-1H-pyrazol-1-yl)-3-oxopropyl]amino}benzene-1-sulfonamide], the Kd is 0.9 µM on CA VII [9] (ITC, pH 7.0, 37 °C, read-out: Kd for CA VII by isothermal titration calorimetry (values in the brackets)); 1 µM at CA XIII [10] (ITC, pH 7.0, 37 °C, read-out: Kd for CA XIII by isothermal titration calorimetry (values in the brackets)); 1.67 µM on CA I [1] (setting [15]); 0.75 µM at CA I [11] (ITC, pH 7.0, 37 °C, read-out: Kd for CA I by isothermal titration calorimetry (values in the brackets)); 4 µM at CA XIII [2] (setting [14]); 0.67 µM and 0.667 µM on CA II [7] (setting [16]). Also, the Kd on CA VII [3] (setting [17]) came out at 3.33 µM; at CA VI [5] (setting [18]), 27 µM; at CA II [12] (ITC, pH 7.0, 37 °C, read-out: Kd for CA II by isothermal titration calorimetry (values in the brackets)), 0.454 µM; on CA XII [8] (setting [19]), 14.3 µM. The “K (ITC titration of CA II)” value on CA II [12] turned out to be 2.2E6. Further, at CA II [12], the “ΔH (ITC titration of CA II)” value is -9320.
For `NS(=O)(=O)c1ccc(NCCc2n[nH]c(=S)n2-c2ccccc2)cc1` [Compound 23, 4-{[2-(4-Phenyl-5-sulfanylidene-4,5-dihydro-1H-1,2,4-triazol-3-yl)ethyl]amino}benzene-1-sulfonamide], the melting point was 253 to 254 °C. The Kd at CA I [1] (setting [15]) was found to be 10 µM. Also, on CA XIII [2] (setting [14]), the Kd amounted to 10 µM. Moreover, at CA II [7] (setting [16]), the Kd stood at 2 µM. Besides, on CA VII [3] (setting [17]), the Kd is 6.67 µM. Moreover, the Kd on CA VI [5] (setting [18]) was found to be 11.1 µM. Further, the Kd on CA XII [8] (setting [19]) stood at 6.67 µM.
As for `NS(=O)(=O)c1ccc(/N=N/N2CCCCCC2)cc1` [Compound 31], the Kd on CA VII [9] worked out at 0.192 µM; at CA XIII [10], 0.078 µM; at CA I [1], 0.006 µM; on CA I [11], 0.022 µM; on CA XIII [2], 0.0222 µM; on CA II [7] (Compound Dissociation Constants Kd for CA II) it was 0.0435 µM. Also, the Kd at CA VII [3] was 0.125 µM; on CA VI [5], 14.3 µM; on CA II [12], 0.04 µM; on CA XII [13] it was 0.22 µM; at CA XII [8], 0.67 µM. Also, the “K (ITC titration of CA II)” value on CA II [12] was 2.5E7. Also, the “ΔH (ITC titration of CA II)” value at CA II [12] is -9640.
